This passage reports Ratio and Activity results from ChEMBL document CHEMBL4351033, “Heterocyclic β-keto sulfide derivatives of carvacrol: Synthesis and copper (II) ion reducing capacity” (Bioorg Med Chem Lett, 2019).

Activity calls are given as the source filed them. The calls are words filed in the database; no cut-off is given here.

The nature of one test: Antioxidant activity assessed as reduction of Cu2+ in bis-neocuproine-Cu2+ complex to bis-neocuproine-Cu+ complex measured as trolox equivalent antioxidant capacity incubated for 30 mins by CUPRAC assay. It counts as functional.
Consider `COc1cc(C(C)C)c(C(=O)CSc2nc3ccccc3s2)cc1C`, for which the Ratio was 1.26. Same read-out and setting: the value for `O=C1O[C@H]([C@@H](O)CO)C(O)=C1O` was 0.85. Still for that read-out and setting: the value for `COc1cc(C(C)C)c(C(=O)CSc2nnc(N)s2)cc1C` was 1.4; that for `Cc1ccc(C(C)C)cc1O` was 0.87; that for `COc1cc(C(C)C)c(C(=O)CSc2nnc(-c3ccncc3)o2)cc1C` was 0.95. On the same count and under the same terms, the value for `COc1cc(C(C)C)c(C(=O)CSc2ccncc2)cc1C` was 0.47; that for `COc1cc(C(C)C)c(C(=O)CSc2nc3ccccc3o2)cc1C` was 1.47. Regarding `COc1cc(C(C)C)c(C(=O)CS(=O)(=O)c2ccccc2)cc1C`, the result was inactive. Consider `COc1cc(C(C)C)c(C(=O)CSc2nnc(C)s2)cc1C`, for which the Ratio amounted to 1.73. Same read-out and setting: the value for `COc1cc(C(C)C)c(C(=O)CSc2nnc(-c3ccccn3)o2)cc1C` was 1.59; that for `COc1cc(C(C)C)c(C(=O)CSc2nnc(-c3cccnc3)o2)cc1C` was 0.68; that for `COc1cc(C(C)C)c(C(=O)CSc2ccccc2)cc1C` was 0.8. As to `COc1cc(C(C)C)c(C(=O)CSc2nc3ccccc3[nH]2)cc1C`, the Ratio is 1.21.

Regarding `COc1cc(C(C)C)c(C(=O)CSc2ncccn2)cc1C`, the Ratio is 0.39. As for `COc1cc(C(C)C)c(C(=O)CSc2nnc(-c3ccccc3)[nH]2)cc1C`, the Ratio came out at 1.02. On to `COc1cc(C(C)C)c(C(=O)CSc2nnc(-c3ccccc3)o2)cc1C`, for which the Ratio was determined as 1.34.

`COc1cc(C(C)C)c(C(=O)CSc2ncnc3[nH]cnc23)cc1C`: the Ratio worked out at 1.32. Still for that read-out and setting: as for `COc1cc(C(C)C)c(C(=O)CSc2nnc(N)[nH]2)cc1C`, the figure is 1.62.

On to `COc1cc(C(C)C)c(C(=O)CSc2ccccn2)cc1C`, for which the Ratio is 0.59.

The nature of another test: Metal coordinating activity assessed as compound-copper coordination at 12.5 to 37.5 uM incubated for 0.5 to 1 hr in presence of 2.5 mM CuCl2 by UV-Visible spectrophotometric analysis. It counts as functional.
As for `COc1cc(C(C)C)c(C(=O)CSc2nnc(-c3ccccn3)o2)cc1C`, the result was inactive.
